This experiment has as its target cGMP-specific 3',5'-cyclic phosphodiesterase (Homo sapiens, UniProt O76074). Put plainly: Inhibition of PDE5.

As usually defined, the IC50 is the concentration needed to halve the response being measured. A higher IC50 goes with lower potency. `CCOc1ccc([C@H]2c3[nH]c4ccccc4c3Cc3c(O)n(Cc4cccnc4)c(=O)n32)cc1` came in with an IC50 of 20 nM.

On to `CCOc1ccc([C@H]2c3[nH]c4ccccc4c3Cc3c(O)n(CCN(C)C)c(=O)n32)cc1`, for which the IC50 turned out to be 30 nM.

As for `CCOc1ccc([C@H]2c3[nH]c4ccccc4c3Cc3c(O)[nH]c(=O)n32)cc1`, inhibition was half-maximal at 20 nM (IC50). Turning to `CCOc1ccc([C@H]2c3[nH]c4ccccc4c3Cc3c(O)n(CCn4cccc4)c(=O)n32)cc1`, the IC50 was 100 nM. In the case of `CCCCn1c(O)c2n(c1=O)[C@H](c1ccoc1)c1[nH]c3ccccc3c1C2` [(3aR,10R)-2-Butyl-10-furan-3-yl-3a,4,9,10-tetrahydro-2,9,10a-triaza-cyclopenta[b]fluorene-1,3-dione] it was 100 nM; in that of `CCCCn1c(O)c2n(c1=O)[C@H](c1ccsc1)c1[nH]c3ccccc3c1C2` [Cis-2-Butyl-10-thiophen-3-yl-3a,4,9,10-tetrahydro-2,9,10a-triaza-cyclopenta[b]fluorene-1,3-dione], 30 nM.

Values taken from BindingDB's records for doi:10.1016/j.bmc.2008.07.022 (Universidade Federal De Lavras-Ufla, 2008).
